Laboratory results: ChEMBL document CHEMBL1140154, “1H-cyclopentapyrimidine-2,4(1H,3H)-dione-related ionotropic glutamate receptors ligands. structure-activity relationships and identification of potent and Selective iGluR5 modulators” (J Med Chem, 2008)
One block for each compound: values may come before it.

Legend:
Glutamate receptor 1 [1] = biological target: T1, Glutamate receptor 1 (Rattus norvegicus, UniProt P19490); test: biochemical
Glutamate receptor 1 [2] = biological target: T1, Glutamate receptor 1; test: Agonist activity at cyclothiazide-desensitized rat recombinant flop iGluR1 expressed in Xenopus laevis oocytes by two electrode voltage-clamp electrophysiology method; type: functional, cell-based, Oocyte
[3] = biological target: Glutamate receptor ionotropic, kainate 1 (Rattus norvegicus, UniProt P22756); test: biochemical
[4] = biological target: Glutamate receptor ionotropic, kainate 2 (Rattus norvegicus, UniProt P42260); test: Displacement of [3H]kainic acid from rat recombinant iGluR6(V,C,R) receptor expressed in Sf9 cells
Sequence of Glutamate receptor ionotropic, kainate 2 (P42260 whole entry): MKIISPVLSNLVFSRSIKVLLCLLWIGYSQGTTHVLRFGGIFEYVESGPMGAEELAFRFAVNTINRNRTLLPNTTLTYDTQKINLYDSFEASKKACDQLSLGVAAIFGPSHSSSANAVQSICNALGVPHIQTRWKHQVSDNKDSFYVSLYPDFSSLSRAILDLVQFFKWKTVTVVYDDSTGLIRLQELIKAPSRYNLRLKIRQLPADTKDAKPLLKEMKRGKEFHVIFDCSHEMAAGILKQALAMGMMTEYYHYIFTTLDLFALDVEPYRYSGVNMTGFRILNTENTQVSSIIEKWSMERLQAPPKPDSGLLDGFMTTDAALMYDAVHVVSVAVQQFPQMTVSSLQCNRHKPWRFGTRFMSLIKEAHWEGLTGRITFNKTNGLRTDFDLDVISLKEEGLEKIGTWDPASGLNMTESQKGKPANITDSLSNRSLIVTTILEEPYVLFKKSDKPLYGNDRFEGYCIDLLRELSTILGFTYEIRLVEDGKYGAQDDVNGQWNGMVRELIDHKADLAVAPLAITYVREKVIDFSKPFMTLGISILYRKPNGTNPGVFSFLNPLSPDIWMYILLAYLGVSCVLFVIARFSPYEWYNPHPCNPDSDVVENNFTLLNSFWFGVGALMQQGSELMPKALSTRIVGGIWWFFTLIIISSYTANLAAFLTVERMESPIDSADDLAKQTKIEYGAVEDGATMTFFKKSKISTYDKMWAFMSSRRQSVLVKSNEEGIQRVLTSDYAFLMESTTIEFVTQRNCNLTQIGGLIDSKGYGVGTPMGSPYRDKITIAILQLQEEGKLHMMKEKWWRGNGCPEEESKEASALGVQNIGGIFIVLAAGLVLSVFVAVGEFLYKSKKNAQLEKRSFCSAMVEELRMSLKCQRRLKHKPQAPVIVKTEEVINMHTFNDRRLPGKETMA

Glutamate receptor 3 [5] = biological target: T2, Glutamate receptor 3 (Rattus norvegicus, UniProt P19492); test: biochemical
Glutamate receptor 4 [6] = biological target: T3, Glutamate receptor 4 (Rattus norvegicus, UniProt P19493); test: biochemical
T3 sequence (P19493 whole entry): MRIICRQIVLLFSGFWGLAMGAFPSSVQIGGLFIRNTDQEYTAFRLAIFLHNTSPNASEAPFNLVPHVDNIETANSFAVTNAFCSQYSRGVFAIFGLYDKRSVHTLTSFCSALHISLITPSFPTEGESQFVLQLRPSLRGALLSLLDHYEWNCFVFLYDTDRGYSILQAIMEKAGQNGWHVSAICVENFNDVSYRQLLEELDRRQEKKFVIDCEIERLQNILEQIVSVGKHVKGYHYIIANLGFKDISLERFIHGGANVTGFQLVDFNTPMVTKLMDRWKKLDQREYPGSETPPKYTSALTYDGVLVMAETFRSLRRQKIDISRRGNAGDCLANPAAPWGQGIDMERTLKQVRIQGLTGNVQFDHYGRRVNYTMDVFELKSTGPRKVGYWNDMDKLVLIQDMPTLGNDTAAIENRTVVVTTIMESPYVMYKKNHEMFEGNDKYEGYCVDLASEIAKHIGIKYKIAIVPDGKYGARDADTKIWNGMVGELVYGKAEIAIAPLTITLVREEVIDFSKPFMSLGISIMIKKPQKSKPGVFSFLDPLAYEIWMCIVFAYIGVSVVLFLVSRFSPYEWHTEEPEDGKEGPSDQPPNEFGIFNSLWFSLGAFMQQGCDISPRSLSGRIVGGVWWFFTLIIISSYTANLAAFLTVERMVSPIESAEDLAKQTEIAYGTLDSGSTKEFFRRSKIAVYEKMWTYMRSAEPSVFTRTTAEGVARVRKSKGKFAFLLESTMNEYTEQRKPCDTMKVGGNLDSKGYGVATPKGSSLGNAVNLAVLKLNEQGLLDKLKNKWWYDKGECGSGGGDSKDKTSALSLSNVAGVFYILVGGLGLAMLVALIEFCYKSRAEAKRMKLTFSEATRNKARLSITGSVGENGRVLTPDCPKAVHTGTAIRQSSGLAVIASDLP

Glutamate receptor 2 [7] = biological target: T4, Glutamate receptor 2 (Rattus norvegicus, UniProt P19491); test: biochemical
T4 sequence (P19491 whole entry): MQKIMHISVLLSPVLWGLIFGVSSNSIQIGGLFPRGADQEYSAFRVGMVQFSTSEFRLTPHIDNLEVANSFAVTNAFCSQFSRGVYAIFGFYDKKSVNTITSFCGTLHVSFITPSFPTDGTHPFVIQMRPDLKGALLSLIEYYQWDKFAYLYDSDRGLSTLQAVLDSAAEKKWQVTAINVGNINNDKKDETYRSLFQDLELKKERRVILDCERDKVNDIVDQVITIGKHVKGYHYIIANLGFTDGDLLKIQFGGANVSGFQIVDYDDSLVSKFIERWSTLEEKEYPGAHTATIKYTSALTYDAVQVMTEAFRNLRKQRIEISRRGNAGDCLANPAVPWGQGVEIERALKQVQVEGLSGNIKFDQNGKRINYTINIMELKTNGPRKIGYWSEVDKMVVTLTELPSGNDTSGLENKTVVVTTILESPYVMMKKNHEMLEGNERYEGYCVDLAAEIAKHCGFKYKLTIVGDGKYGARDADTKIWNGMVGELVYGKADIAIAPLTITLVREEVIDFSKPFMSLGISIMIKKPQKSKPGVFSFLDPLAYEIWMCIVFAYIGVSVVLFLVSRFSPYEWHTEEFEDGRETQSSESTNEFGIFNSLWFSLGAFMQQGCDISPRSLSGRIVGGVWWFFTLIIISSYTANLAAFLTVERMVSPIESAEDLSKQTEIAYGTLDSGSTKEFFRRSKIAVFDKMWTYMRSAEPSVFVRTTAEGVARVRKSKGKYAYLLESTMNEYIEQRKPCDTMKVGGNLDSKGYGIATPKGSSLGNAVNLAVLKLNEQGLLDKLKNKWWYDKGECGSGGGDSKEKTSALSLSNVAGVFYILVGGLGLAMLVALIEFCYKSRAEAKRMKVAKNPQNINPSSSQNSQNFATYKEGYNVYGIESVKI

Glutamate receptor 1 [8] = biological target: T1, Glutamate receptor 1; test: Agonist activity at cyclothiazide-desensitized rat recombinant flip iGluR1 expressed in Xenopus laevis oocytes by two electrode voltage-clamp electrophysiology method; type: functional, cell-based, Oocyte
Glutamate receptor 3 [9] = biological target: T2, Glutamate receptor 3; test: Agonist activity at cyclothiazide-desensitized rat recombinant flip iGluR3 expressed in Xenopus laevis oocytes by two electrode voltage-clamp electrophysiology method; type: functional, cell-based, Oocyte
Glutamate receptor 4 [10] = biological target: T3, Glutamate receptor 4; test: Agonist activity at cyclothiazide-desensitized rat recombinant flip iGluR4 expressed in Xenopus laevis oocytes by two electrode voltage-clamp electrophysiology method; type: functional, cell-based, Oocyte
[11] = biological target: Glutamate receptor ionotropic, kainate 1 (Homo sapiens, UniProt P39086); test: Antagonist activity at human iGluR5(Q)1b expressed in CHO-K1 cells by whole cell patch-clamp method; type: functional, cell-based
Glutamate receptor 1 [12] = biological target: T5, Glutamate receptor 1 (Homo sapiens, UniProt P42261); test: Agonist activity at cyclothiazide-desensitized human flip iGluR1 expressed in CHO-K1 cells by whole cell patch-clamp method; type: functional, cell-based
T5 sequence (P42261 whole entry): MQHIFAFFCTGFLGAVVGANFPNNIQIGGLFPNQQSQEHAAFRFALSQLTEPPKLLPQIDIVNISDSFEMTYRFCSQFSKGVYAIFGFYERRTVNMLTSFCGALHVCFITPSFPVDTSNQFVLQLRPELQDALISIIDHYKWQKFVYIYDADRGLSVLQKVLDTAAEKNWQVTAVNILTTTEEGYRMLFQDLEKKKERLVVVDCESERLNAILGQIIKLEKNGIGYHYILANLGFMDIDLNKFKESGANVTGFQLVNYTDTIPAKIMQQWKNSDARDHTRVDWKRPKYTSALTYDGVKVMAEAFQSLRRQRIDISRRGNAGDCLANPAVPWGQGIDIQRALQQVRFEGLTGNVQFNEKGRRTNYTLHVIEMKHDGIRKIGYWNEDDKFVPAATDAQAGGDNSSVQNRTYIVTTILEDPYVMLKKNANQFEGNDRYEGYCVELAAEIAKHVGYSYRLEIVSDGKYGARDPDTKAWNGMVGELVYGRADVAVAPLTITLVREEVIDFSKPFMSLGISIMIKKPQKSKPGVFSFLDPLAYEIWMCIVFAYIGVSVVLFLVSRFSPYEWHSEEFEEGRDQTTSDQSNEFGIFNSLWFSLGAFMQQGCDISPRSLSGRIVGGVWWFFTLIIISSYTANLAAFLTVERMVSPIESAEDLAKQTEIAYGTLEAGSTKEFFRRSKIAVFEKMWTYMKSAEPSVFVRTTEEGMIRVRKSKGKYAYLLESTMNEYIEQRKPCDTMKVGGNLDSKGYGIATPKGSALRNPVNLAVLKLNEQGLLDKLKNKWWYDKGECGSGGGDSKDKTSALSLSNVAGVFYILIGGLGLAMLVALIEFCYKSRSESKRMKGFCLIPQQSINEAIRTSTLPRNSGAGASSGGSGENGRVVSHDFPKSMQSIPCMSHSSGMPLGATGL

Glutamate receptor 2 [13] = biological target: T4, Glutamate receptor 2
Glutamate receptor 1 [14] = biological target: T5, Glutamate receptor 1; test: Antagonist activity at human flip iGluR1 expressed in CHO-K1 cells by whole cell patch-clamp method; type: functional, cell-based

T1 sequence (P19490 whole entry): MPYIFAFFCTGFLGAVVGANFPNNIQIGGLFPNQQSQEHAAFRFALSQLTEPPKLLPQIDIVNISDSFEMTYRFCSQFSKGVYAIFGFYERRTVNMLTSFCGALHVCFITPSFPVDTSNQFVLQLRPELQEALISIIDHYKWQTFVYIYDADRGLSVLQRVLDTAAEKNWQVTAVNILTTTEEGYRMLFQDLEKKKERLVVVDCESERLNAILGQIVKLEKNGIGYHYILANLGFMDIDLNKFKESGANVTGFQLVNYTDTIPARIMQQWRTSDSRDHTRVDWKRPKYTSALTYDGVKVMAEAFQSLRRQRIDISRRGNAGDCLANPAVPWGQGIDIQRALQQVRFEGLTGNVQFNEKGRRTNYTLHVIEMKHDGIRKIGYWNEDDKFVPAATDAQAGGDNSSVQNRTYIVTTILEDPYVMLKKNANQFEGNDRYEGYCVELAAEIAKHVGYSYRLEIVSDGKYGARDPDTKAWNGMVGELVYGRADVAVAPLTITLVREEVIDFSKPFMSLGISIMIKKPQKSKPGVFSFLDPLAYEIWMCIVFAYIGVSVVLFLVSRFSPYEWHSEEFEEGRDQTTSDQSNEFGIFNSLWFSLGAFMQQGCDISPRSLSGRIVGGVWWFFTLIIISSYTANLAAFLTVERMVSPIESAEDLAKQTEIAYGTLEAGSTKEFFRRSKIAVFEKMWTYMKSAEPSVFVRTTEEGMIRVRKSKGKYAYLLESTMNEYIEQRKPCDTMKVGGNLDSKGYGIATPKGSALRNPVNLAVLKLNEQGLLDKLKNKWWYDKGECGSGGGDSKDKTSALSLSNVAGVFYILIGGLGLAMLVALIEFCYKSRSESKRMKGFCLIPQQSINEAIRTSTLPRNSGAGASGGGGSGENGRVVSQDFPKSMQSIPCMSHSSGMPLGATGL

Compound: N[C@@H](Cn1c2c(c(=O)[nH]c1=O)CCC2)C(=O)O
Ki (Glutamate receptor 1 [1]): 0.109 µM | EC50 (Glutamate receptor 1 [2]): 24.9 µM | Ki [3]: 0.044 µM | Ki [4]: > 1000 µM | Ki (Glutamate receptor 3 [5]): 1.89 µM | Ki (Glutamate receptor 4 [6]): 2.09 µM

Compound: N[C@@H](Cn1cc(I)c(=O)[nH]c1=O)C(=O)O
Ki (Glutamate receptor 1 [1]): 0.083 µM | EC50 (Glutamate receptor 1 [2]): 33.6 µM | Ki [3]: 0.0024 µM | Ki [4]: > 100 µM | Ki (Glutamate receptor 3 [5]): 0.976 µM | Ki (Glutamate receptor 4 [6]): 0.738 µM

Compound: N[C@@H](Cn1cc(Br)c(=O)[nH]c1=O)C(=O)O
EC50 (Glutamate receptor 1 [2]): 2.8 µM

Compound: N[C@@H](Cn1ccc(=O)[nH]c1=O)C(=O)O [(S)-WILLARDIINE]
EC50 (Glutamate receptor 1 [2]): 11.5 µM

Compound: N[C@@H](Cn1c(=O)[nH]c(=O)c2cocc21)C(=O)O
Ki (Glutamate receptor 1 [1]): 35.2 µM | Ki [3]: 2.98 µM | Ki [4]: > 1000 µM | Ki (Glutamate receptor 3 [5]): > 100 µM | Ki (Glutamate receptor 4 [6]): > 100 µM

Compound: N[C@H](Cn1c2c(c(=O)[nH]c1=O)CCC2)C(=O)O
Ki (Glutamate receptor 1 [1]): 10.4 µM | Ki (Glutamate receptor 4 [6]): > 100 µM

Compound: NC(Cn1cc(Br)c(=O)[nH]c1=O)C(=O)O (racemic)
Ki (Glutamate receptor 1 [1]): 0.035 µM | Ki [3]: 0.0148 µM | Ki [4]: > 100 µM | Ki (Glutamate receptor 3 [5]): 0.434 µM | Ki (Glutamate receptor 4 [6]): 0.656 µM

Compound: NC(Cn1ccc(=O)[nH]c1=O)C(=O)O (stereo not given)
Ki (Glutamate receptor 1 [1]): 0.41 µM | Ki [3]: > 100 µM | Ki [4]: > 1000 µM | Ki (Glutamate receptor 4 [6]): 14.2 µM

Compound: Cc1onc(O)c1CC(N)C(=O)O (racemic) [(R,S)-AMPA]
Ki [4]: > 1000 µM

Compound: C=C(C)[C@H]1CN[C@H](C(=O)O)[C@H]1CC(=O)O [KAINIC ACID]
Ki (Glutamate receptor 4 [6]): 3.57 µM

Compound: CC1(C)Cc2c(n(C[C@H](N)C(=O)O)c(=O)[nH]c2=O)C1
Ki (Glutamate receptor 1 [1]): 0.102 µM | Ki (Glutamate receptor 2 [7]): 0.126 µM | Ki [3]: 0.976 µM | Ki [4]: > 1000 µM | Ki (Glutamate receptor 3 [5]): 1.51 µM | Ki (Glutamate receptor 4 [6]): 1.59 µM

Ki (Glutamate receptor 1 [1]): 2.39 µM | Ki (Glutamate receptor 2 [7]): 3.39 µM | Ki [3]: 0.49 µM | Ki [4]: > 1000 µM | Ki (Glutamate receptor 3 [5]): 6.91 µM | Ki (Glutamate receptor 4 [6]): 15.7 µM
Compound: N[C@@H](Cn1c(=O)[nH]c(=O)c2ccccc21)C(=O)O

Compound: N[C@@H](CCn1c2c(c(=O)n(CC[C@H](N)C(=O)O)c1=O)CCC2)C(=O)O
Ki (Glutamate receptor 1 [1]): > 100 µM | Ki (Glutamate receptor 2 [7]): > 100 µM | Ki [3]: > 1000 µM | Ki [4]: > 100 µM | Ki (Glutamate receptor 3 [5]): > 100 µM | Ki (Glutamate receptor 4 [6]): > 100 µM

Compound: N[C@@H](Cn1cc(F)c(=O)[nH]c1=O)C(=O)O
EC50 (Glutamate receptor 1 [8]): 0.38 µM | Ki (Glutamate receptor 1 [1]): 0.0029 µM | EC50 (Glutamate receptor 3 [9]): 20.9 µM | Ki [3]: 1.38 µM | Ki [4]: > 100 µM | Ki (Glutamate receptor 3 [5]): 0.07 µM | EC50 (Glutamate receptor 4 [10]): 11.9 µM | Ki (Glutamate receptor 4 [6]): 0.123 µM

Compound: N[C@@H](Cn1cc(Cl)c(=O)[nH]c1=O)C(=O)O
Ki (Glutamate receptor 1 [1]): 0.037 µM | Ki [3]: 0.047 µM | Ki [4]: > 100 µM | Ki (Glutamate receptor 3 [5]): 0.451 µM | Ki (Glutamate receptor 4 [6]): 0.561 µM

Ki (Glutamate receptor 1 [1]): > 100 µM | Ki (Glutamate receptor 2 [7]): > 100 µM | Ki [3]: > 1000 µM | Ki [4]: > 1000 µM | Ki (Glutamate receptor 3 [5]): > 100 µM | Ki (Glutamate receptor 4 [6]): > 100 µM
Compound: N[C@@H](CCn1c2c(c(=O)[nH]c1=O)CCC2)C(=O)O

Compound: N[C@@H](Cn1c2c(c(=O)[nH]c1=O)CSC2)C(=O)O
EC50 (Glutamate receptor 1 [8]): 11.8 µM | Ki (Glutamate receptor 1 [1]): 0.058 µM | IC50 [11]: 0.0038 µM | EC50 (Glutamate receptor 3 [9]): 33.9 µM | IC50 [3]: 0.0052 µM | Ki [4]: > 1000 µM | Ki (Glutamate receptor 3 [5]): 0.311 µM | EC50 (Glutamate receptor 4 [10]): 24.2 µM | Ki (Glutamate receptor 4 [6]): 0.288 µM | EC50 (Glutamate receptor 1 [12]): 18.5 µM

Compound: N[C@@H](Cn1c(=O)[nH]c(=O)c2sccc21)C(=O)O
EC50 (Glutamate receptor 2 [13]): 11.8 µM | EC50 (Glutamate receptor 1 [8]): 7.2 µM | Ki (Glutamate receptor 1 [1]): 0.05 µM | Ki (Glutamate receptor 2 [7]): 0.112 µM | IC50 (Glutamate receptor 1 [14]): 0.374 µM | EC50 (Glutamate receptor 3 [9]): 120 µM | Ki [4]: > 1000 µM | Ki (Glutamate receptor 3 [5]): 0.936 µM | EC50 (Glutamate receptor 4 [10]): 90 µM | Ki (Glutamate receptor 4 [6]): 0.804 µM | EC50 (Glutamate receptor 1 [12]): 4.1 µM
